Test system: 857933-349-R-J2-PDC complex spheroid viability
Experiment: Anticancer human tumor 857933-349-R-J2-PDC patient-derived colon adenocarcinoma cell line growth inhibition [POLQ]
Conditions: for IC50: curve of first compound; for viability, T/C: stronger effect = lower value
Summary of the method: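 Growth inhibition in 3D: complex spheroids (tumor PDC, HUVEC, MSC) treated with POLQ inhibitor combinations; where Cmax unknown, highest tested concentration 10 microM, except SN-38 at 1 microM.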

[1] = second compound 0.0316 µM, first compound 0.00316 µM
[2] = second compound 0.0316 µM, first compound 0.01 µM
[3] = second compound 0.0316 µM, first compound 0.0316 µM
[4] = second compound 0.0316 µM, first compound 0.1 µM
[5] = second compound 0.0316 µM, first compound 0.316 µM
[6] = second compound 0.0316 µM, first compound 1 µM
[7] = second compound 0.1 µM, first compound 0.00316 µM
[8] = second compound 0.1 µM, first compound 0.01 µM
[9] = second compound 0.1 µM, first compound 0.0316 µM
[10] = second compound 0.1 µM, first compound 0.1 µM
[11] = second compound 0.1 µM, first compound 0.316 µM
[12] = second compound 0.1 µM, first compound 1 µM
[13] = second compound 0.316 µM, first compound 0.00316 µM
[14] = second compound 0.316 µM, first compound 0.01 µM
[15] = second compound 0.316 µM, first compound 0.0316 µM
[16] = second compound 0.316 µM, first compound 0.1 µM
[17] = second compound 0.316 µM, first compound 0.316 µM
[18] = second compound 0.316 µM, first compound 1 µM
[19] = second compound 1 µM, first compound 0.00316 µM
[20] = second compound 1 µM, first compound 0.01 µM
[21] = second compound 1 µM, first compound 0.0316 µM
[22] = second compound 1 µM, first compound 0.1 µM
[23] = second compound 1 µM, first compound 0.316 µM
[24] = second compound 1 µM, first compound 1 µM
[25] = second compound 3.16 µM, first compound 0.00316 µM
[26] = second compound 3.16 µM, first compound 0.01 µM
[27] = second compound 3.16 µM, first compound 0.0316 µM
[28] = second compound 3.16 µM, first compound 0.1 µM
[29] = second compound 3.16 µM, first compound 0.316 µM
[30] = second compound 3.16 µM, first compound 1 µM
[31] = second compound 10 µM, first compound 0.00316 µM
[32] = second compound 10 µM, first compound 0.01 µM
[33] = second compound 10 µM, first compound 0.0316 µM
[34] = second compound 10 µM, first compound 0.1 µM
[35] = second compound 10 µM, first compound 0.316 µM
[36] = second compound 10 µM, first compound 1 µM
[37] = second compound 0.0316 µM, first compound 3.16 µM
[38] = second compound 0.0316 µM, first compound 10 µM
[39] = second compound 0.1 µM, first compound 3.16 µM
[40] = second compound 0.1 µM, first compound 10 µM
[41] = second compound 0.316 µM, first compound 3.16 µM
[42] = second compound 0.316 µM, first compound 10 µM
[43] = second compound 1 µM, first compound 3.16 µM
[44] = second compound 1 µM, first compound 10 µM
[45] = second compound 3.16 µM, first compound 3.16 µM
[46] = second compound 3.16 µM, first compound 10 µM
[47] = second compound 10 µM, first compound 3.16 µM
[48] = second compound 10 µM, first compound 10 µM
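Note: spheroids exposed to compounds for seven days before readout.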

## C=CCn1c(=O)c2cnc(Nc3ccc(N4CCN(C)CC4)cc3)nc2n1-c1cccc(C(C)(C)O)n1 + COC1C(OC(N)=O)C(O)C(Oc2ccc3c(O)c(NC(=O)c4ccc(O)c(CC=C(C)C)c4)c(=O)oc3c2C)OC1(C)C
Second compound 0.0316 µM
  IC50: > 1 µM
Second compound 0.1 µM
  IC50: > 1 µM
Second compound 0.316 µM
  IC50: > 1 µM
Second compound 1 µM
  IC50: > 1 µM
Second compound 3.16 µM
  IC50: > 1 µM
Second compound 10 µM
  IC50: > 1 µM
[1]
  viability, T/C: 89.8%
[2]
  viability, T/C: 96.5%
[3]
  viability, T/C: 76.7%
[4]
  viability, T/C: 81.7%
[5]
  viability, T/C: 84.6%
[6]
  viability, T/C: 80.9%
[7]
  viability, T/C: 97.9%
[8]
  viability, T/C: 106%
[9]
  viability, T/C: 112%
[10]
  viability, T/C: 89.4%
[11]
  viability, T/C: 74.3%
[12]
  viability, T/C: 64.7%
[13]
  viability, T/C: 92.4%
[14]
  viability, T/C: 95.3%
[15]
  viability, T/C: 91%
[16]
  viability, T/C: 78.8%
[17]
  viability, T/C: 79.2%
[18]
  viability, T/C: 64.1%
[19]
  viability, T/C: 102%
[20]
  viability, T/C: 80.4%
[21]
  viability, T/C: 88.7%
[22]
  viability, T/C: 87.3%
[23]
  viability, T/C: 95.8%
[24]
  viability, T/C: 61.8%
[25]
  viability, T/C: 92%
[26]
  viability, T/C: 86.6%
[27]
  viability, T/C: 74.6%
[28]
  viability, T/C: 74.2%
[29]
  viability, T/C: 91.1%
[30]
  viability, T/C: 77.5%
[31]
  viability, T/C: 83.8%
[32]
  viability, T/C: 86.8%
[33]
  viability, T/C: 91.8%
[34]
  viability, T/C: 72.5%
[35]
  viability, T/C: 83.9%
[36]
  viability, T/C: 67.5%

## CCCS(=O)(=O)Nc1ccc(F)c(C(=O)c2c[nH]c3ncc(-c4ccc(Cl)cc4)cc23)c1F + COC1C(OC(N)=O)C(O)C(Oc2ccc3c(O)c(NC(=O)c4ccc(O)c(CC=C(C)C)c4)c(=O)oc3c2C)OC1(C)C
Second compound 0.0316 µM
  IC50: 5.65 µM
Second compound 0.1 µM
  IC50: 6.17 µM
Second compound 0.316 µM
  IC50: 5.04 µM
Second compound 1 µM
  IC50: 5.74 µM
Second compound 3.16 µM
  IC50: 5.75 µM
Second compound 10 µM
  IC50: 6.76 µM
[3]
  viability, T/C: 73.7%
[4]
  viability, T/C: 113%
[5]
  viability, T/C: 96.1%
[6]
  viability, T/C: 117%
[37]
  viability, T/C: 85%
[38]
  viability, T/C: 15.7%
[9]
  viability, T/C: 96.9%
[10]
  viability, T/C: 112%
[11]
  viability, T/C: 107%
[12]
  viability, T/C: 109%
[39]
  viability, T/C: 103%
[40]
  viability, T/C: 12.1%
[15]
  viability, T/C: 132%
[16]
  viability, T/C: 121%
[17]
  viability, T/C: 76.7%
[18]
  viability, T/C: 99.8%
[41]
  viability, T/C: 85%
[42]
  viability, T/C: 12.4%
[21]
  viability, T/C: 108%
[22]
  viability, T/C: 77.6%
[23]
  viability, T/C: 121%
[24]
  viability, T/C: 94.5%
[43]
  viability, T/C: 89.9%
[44]
  viability, T/C: 13.3%
[27]
  viability, T/C: 108%
[28]
  viability, T/C: 117%
[29]
  viability, T/C: 101%
[30]
  viability, T/C: 95.5%
[45]
  viability, T/C: 89.2%
[46]
  viability, T/C: 16.6%
[33]
  viability, T/C: 93.9%
[34]
  viability, T/C: 83.7%
[35]
  viability, T/C: 93.7%
[36]
  viability, T/C: 82.5%
[47]
  viability, T/C: 87.1%
[48]
  viability, T/C: 30.9%

## COc1cccc(OCCCN)c1-c1cc(Nc2cnc(C#N)cn2)n[nH]1 + COC1C(OC(N)=O)C(O)C(Oc2ccc3c(O)c(NC(=O)c4ccc(O)c(CC=C(C)C)c4)c(=O)oc3c2C)OC1(C)C
Second compound 0.0316 µM
  IC50: 0.0895 µM
Second compound 0.1 µM
  IC50: 0.0669 µM
Second compound 0.316 µM
  IC50: 0.155 µM
Second compound 1 µM
  IC50: 0.0869 µM
Second compound 3.16 µM
  IC50: 0.204 µM
Second compound 10 µM
  IC50: 0.17 µM
[1]
  viability, T/C: 102%
[2]
  viability, T/C: 75.5%
[3]
  viability, T/C: 61.3%
[4]
  viability, T/C: 48.8%
[5]
  viability, T/C: 44.1%
[6]
  viability, T/C: 29.9%
[7]
  viability, T/C: 79.5%
[8]
  viability, T/C: 113%
[9]
  viability, T/C: 58.8%
[10]
  viability, T/C: 51.5%
[11]
  viability, T/C: 48.9%
[12]
  viability, T/C: 35.4%
[13]
  viability, T/C: 85.2%
[14]
  viability, T/C: 86.1%
[15]
  viability, T/C: 62.6%
[16]
  viability, T/C: 53.2%
[17]
  viability, T/C: 48.5%
[18]
  viability, T/C: 35.4%
[19]
  viability, T/C: 95%
[20]
  viability, T/C: 84.2%
[21]
  viability, T/C: 52.8%
[22]
  viability, T/C: 51.2%
[23]
  viability, T/C: 46.5%
[24]
  viability, T/C: 32.2%
[25]
  viability, T/C: 93.7%
[26]
  viability, T/C: 89.1%
[27]
  viability, T/C: 79.5%
[28]
  viability, T/C: 56.2%
[29]
  viability, T/C: 47.5%
[30]
  viability, T/C: 33.6%
[31]
  viability, T/C: 88%
[32]
  viability, T/C: 77.7%
[33]
  viability, T/C: 70.5%
[34]
  viability, T/C: 54.2%
[35]
  viability, T/C: 44%
[36]
  viability, T/C: 31%

## O=C(c1cc(Cc2n[nH]c(=O)c3ccccc23)ccc1F)N1CCN(C(=O)C2CC2)CC1 + COC1C(OC(N)=O)C(O)C(Oc2ccc3c(O)c(NC(=O)c4ccc(O)c(CC=C(C)C)c4)c(=O)oc3c2C)OC1(C)C
Second compound 0.0316 µM
  IC50: > 10 µM
Second compound 0.1 µM
  IC50: > 10 µM
Second compound 0.316 µM
  IC50: > 10 µM
Second compound 1 µM
  IC50: > 10 µM
Second compound 3.16 µM
  IC50: > 10 µM
Second compound 10 µM
  IC50: > 10 µM
[3]
  viability, T/C: 125%
[4]
  viability, T/C: 126%
[5]
  viability, T/C: 90.8%
[6]
  viability, T/C: 100%
[37]
  viability, T/C: 109%
[38]
  viability, T/C: 84.1%
[9]
  viability, T/C: 94%
[10]
  viability, T/C: 130%
[11]
  viability, T/C: 94.4%
[12]
  viability, T/C: 88.2%
[39]
  viability, T/C: 102%
[40]
  viability, T/C: 79.3%
[15]
  viability, T/C: 123%
[16]
  viability, T/C: 123%
[17]
  viability, T/C: 112%
[18]
  viability, T/C: 115%
[41]
  viability, T/C: 92.9%
[42]
  viability, T/C: 97%
[21]
  viability, T/C: 93.4%
[22]
  viability, T/C: 103%
[23]
  viability, T/C: 87.1%
[24]
  viability, T/C: 91.2%
[43]
  viability, T/C: 104%
[44]
  viability, T/C: 104%
[27]
  viability, T/C: 92.8%
[28]
  viability, T/C: 96.8%
[29]
  viability, T/C: 96.3%
[30]
  viability, T/C: 81.6%
[45]
  viability, T/C: 96.1%
[46]
  viability, T/C: 86.5%
[33]
  viability, T/C: 84.5%
[34]
  viability, T/C: 121%
[35]
  viability, T/C: 79.3%
[36]
  viability, T/C: 82.7%
[47]
  viability, T/C: 120%
[48]
  viability, T/C: 90%

From PubChem BioAssay AID1963836 (Molecular Pharmacology Branch, DTP, NCI, 2024)
